The NIST ThermoML archive (doi:10.1016/j.jct.2017.07.004)

Assay: xn = mol fraction of the nth substance listed
Details: 100 kPa, Liquid; for viscosity: Concentric cylinders viscometry; for mass density: Vibrating tube method

CCC=O [propanal] + CC(C)O
Details	mass density [kg/m3]	viscosity [mPa·s]
293.15 K, x1 = 0.0812	792	2.37
293.15 K, x1 = 0.16	797.2	2.3
293.15 K, x1 = 0.24	801.6	2.2
293.15 K, x1 = 0.3499	806.4	2
293.15 K, x1 = 0.4402	809.2	1.81
293.15 K, x1 = 0.5619	811.4	1.52
293.15 K, x1 = 0.6483	811.8	1.3
293.15 K, x1 = 0.74	811.3	1.06
293.15 K, x1 = 0.85	809.1	0.76
293.15 K, x1 = 0.94	806	0.51
293.15 K, x1 = 1	802.4	0.34
298.15 K, x1 = 0.0812	786.6	2.04
298.15 K, x1 = 0.16	791.5	1.97
298.15 K, x1 = 0.24	795.9	1.88
298.15 K, x1 = 0.3499	800.4	1.72
298.15 K, x1 = 0.4402	803	1.56
298.15 K, x1 = 0.5619	804.9	1.32
298.15 K, x1 = 0.6483	805	1.13
298.15 K, x1 = 0.74	804.1	0.93
298.15 K, x1 = 0.85	802.3	0.67
298.15 K, x1 = 0.94	799.1	0.46
298.15 K, x1 = 1	796.2	0.33
303.15 K, x1 = 0.0812	781.5	1.76
303.15 K, x1 = 0.16	786.2	1.69
303.15 K, x1 = 0.24	790	1.61
303.15 K, x1 = 0.3499	794.5	1.47
303.15 K, x1 = 0.4402	797.1	1.33
303.15 K, x1 = 0.5619	798.8	1.13
303.15 K, x1 = 0.6483	798.8	0.97
303.15 K, x1 = 0.74	797.8	0.8
303.15 K, x1 = 0.85	795.8	0.59
303.15 K, x1 = 0.94	792.6	0.42
303.15 K, x1 = 1	790.3	0.31
308.15 K, x1 = 0.0812	776.7	1.52
308.15 K, x1 = 0.16	780.9	1.46
308.15 K, x1 = 0.24	784.3	1.38
308.15 K, x1 = 0.3499	788.2	1.26
308.15 K, x1 = 0.4402	790.5	1.14
308.15 K, x1 = 0.5619	792	0.97
308.15 K, x1 = 0.6483	792	0.83
308.15 K, x1 = 0.74	791.4	0.69
308.15 K, x1 = 0.85	789.5	0.52
308.15 K, x1 = 0.94	786.4	0.39
308.15 K, x1 = 1	784.5	0.3
313.15 K, x1 = 0.0812	771.8	1.31
313.15 K, x1 = 0.16	775.5	1.24
313.15 K, x1 = 0.24	778.8	1.17
313.15 K, x1 = 0.3499	782.4	1.06
313.15 K, x1 = 0.4402	784.3	0.96
313.15 K, x1 = 0.5619	785.7	0.83
313.15 K, x1 = 0.6483	785.8	0.72
313.15 K, x1 = 0.74	785.3	0.61
313.15 K, x1 = 0.85	783.3	0.47
313.15 K, x1 = 0.94	780.8	0.36
313.15 K, x1 = 1	779	0.28
318.15 K, x1 = 0.0812	766.8	1.14
318.15 K, x1 = 0.16	770.2	1.08
318.15 K, x1 = 0.24	773.1	1.01
318.15 K, x1 = 0.3499	776.5	0.91
318.15 K, x1 = 0.4402	778.4	0.83
318.15 K, x1 = 0.5619	779.7	0.71
318.15 K, x1 = 0.6483	779.7	0.63
318.15 K, x1 = 0.74	778.9	0.53
318.15 K, x1 = 0.85	777.2	0.42
318.15 K, x1 = 0.94	775.4	0.33
318.15 K, x1 = 1	773.5	0.27
323.15 K, x1 = 0.0812	761.6	0.99
323.15 K, x1 = 0.16	764.6	0.94
323.15 K, x1 = 0.24	767.1	0.87
323.15 K, x1 = 0.3499	770	0.79
323.15 K, x1 = 0.4402	771.7	0.72
323.15 K, x1 = 0.5619	772.8	0.62
323.15 K, x1 = 0.6483	772.8	0.55
323.15 K, x1 = 0.74	772.4	0.47
323.15 K, x1 = 0.85	770.9	0.38
323.15 K, x1 = 0.94	769.4	0.3
323.15 K, x1 = 1	768.2	0.25
